Reference: ChEMBL document CHEMBL2074353, “Reversal of the human and murine multidrug-resistance phenotype with megestrol acetate” (Cancer Chemother Pharmacol, 1994)

Legend:
[1] = molecular target: T1, ATP-dependent translocase ABCB1 (Homo sapiens, UniProt P08183); assay: TP_TRANSPORTER: increase in Doxorubicin intracellular accumulation (Doxorubicin: […], Megestrol acetate: 25 uM) in MCF-7/ADR cells, flow cytometry; type: functional, cell-based; settings: nci/adr-res
[2] = molecular target: T1, ATP-dependent translocase ABCB1; assay: TP_TRANSPORTER: increase in Doxorubicin intracellular accumulation (Doxorubicin: […], Megestrol acetate: 50 uM) in HCT-116/VM46 cells, flow cytometry; type: functional, cell-based; settings: hct-116/vm46, 50 µM

T1 sequence (P08183 whole entry): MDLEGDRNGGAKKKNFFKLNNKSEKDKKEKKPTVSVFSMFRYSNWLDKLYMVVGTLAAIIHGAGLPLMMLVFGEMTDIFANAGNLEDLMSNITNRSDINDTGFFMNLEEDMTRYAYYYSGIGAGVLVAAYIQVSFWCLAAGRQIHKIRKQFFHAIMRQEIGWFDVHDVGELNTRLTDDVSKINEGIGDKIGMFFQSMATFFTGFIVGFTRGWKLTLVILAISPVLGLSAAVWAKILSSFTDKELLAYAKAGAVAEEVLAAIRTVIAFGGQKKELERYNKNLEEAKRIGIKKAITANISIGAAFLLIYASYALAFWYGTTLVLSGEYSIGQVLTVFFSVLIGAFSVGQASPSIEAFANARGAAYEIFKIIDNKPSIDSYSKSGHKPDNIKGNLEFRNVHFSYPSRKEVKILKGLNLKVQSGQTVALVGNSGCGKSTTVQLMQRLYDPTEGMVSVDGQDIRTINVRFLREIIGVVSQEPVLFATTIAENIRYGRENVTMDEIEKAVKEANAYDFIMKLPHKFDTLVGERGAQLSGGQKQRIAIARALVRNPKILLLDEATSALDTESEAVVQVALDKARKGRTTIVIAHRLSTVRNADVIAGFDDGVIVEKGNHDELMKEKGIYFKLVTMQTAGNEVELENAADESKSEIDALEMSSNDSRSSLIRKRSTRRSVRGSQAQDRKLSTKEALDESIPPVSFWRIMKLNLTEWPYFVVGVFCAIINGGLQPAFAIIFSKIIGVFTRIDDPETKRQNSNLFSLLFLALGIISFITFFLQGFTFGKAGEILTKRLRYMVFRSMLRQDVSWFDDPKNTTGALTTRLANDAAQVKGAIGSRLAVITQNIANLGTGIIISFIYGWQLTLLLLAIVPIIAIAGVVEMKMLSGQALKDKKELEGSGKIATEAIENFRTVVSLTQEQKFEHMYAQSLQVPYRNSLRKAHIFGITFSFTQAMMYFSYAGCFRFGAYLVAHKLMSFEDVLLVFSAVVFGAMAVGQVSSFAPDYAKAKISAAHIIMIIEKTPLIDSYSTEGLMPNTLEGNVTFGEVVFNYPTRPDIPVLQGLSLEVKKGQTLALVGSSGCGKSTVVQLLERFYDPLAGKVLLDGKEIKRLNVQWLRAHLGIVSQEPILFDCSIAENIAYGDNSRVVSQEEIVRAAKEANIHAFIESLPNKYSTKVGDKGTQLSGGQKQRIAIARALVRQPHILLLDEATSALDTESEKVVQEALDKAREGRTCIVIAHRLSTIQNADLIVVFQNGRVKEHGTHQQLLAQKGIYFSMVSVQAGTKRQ

## CC(=O)O[C@]1(C(C)=O)CC[C@H]2[C@@H]3C=C(C)C4=CC(=O)CC[C@]4(C)[C@H]3CC[C@@]21C [MEGESTROL ACETATE]
[1]
  Activity: inhibitor [+]
[2]
  Activity: inhibitor [+]
